Legend:
[1] = target: T1, COX-1 derived from ram seminal vesicles (Ovis aries, UniProt P05979); test: Inhibition of COX-1 (arachidonic acid incubation, PGE2 formation); conditions: 300 μM; PGE2 formation by spectrophotometric quantitation of malondialdehyde
T1 sequence (P05979 25-600): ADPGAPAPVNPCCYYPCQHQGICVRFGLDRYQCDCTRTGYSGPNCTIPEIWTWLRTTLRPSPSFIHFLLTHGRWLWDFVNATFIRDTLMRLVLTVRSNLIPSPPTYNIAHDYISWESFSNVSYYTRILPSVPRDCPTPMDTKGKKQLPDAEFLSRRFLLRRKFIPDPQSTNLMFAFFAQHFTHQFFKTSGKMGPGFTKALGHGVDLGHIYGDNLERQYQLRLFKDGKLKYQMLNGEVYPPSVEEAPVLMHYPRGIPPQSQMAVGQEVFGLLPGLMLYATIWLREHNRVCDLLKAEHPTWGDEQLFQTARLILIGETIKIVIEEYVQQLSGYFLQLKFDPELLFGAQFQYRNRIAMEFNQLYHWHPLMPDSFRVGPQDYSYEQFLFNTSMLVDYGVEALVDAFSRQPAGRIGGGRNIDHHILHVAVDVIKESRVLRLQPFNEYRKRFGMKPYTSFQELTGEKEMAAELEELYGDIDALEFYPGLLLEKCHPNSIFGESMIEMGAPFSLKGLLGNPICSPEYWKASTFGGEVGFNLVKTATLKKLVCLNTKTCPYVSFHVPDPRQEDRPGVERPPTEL
Description: (§1) The inhibition of COX-1 was measured by incubating arachidonic acid with COX-1 derived from ram seminal vesicles. The inhibition of COX-2 was measured by incubation of arachidonic acid with COX-2 derived from sheep placenta. […] In each assay, the formation of prostaglandin E2 (PGE2) was measured by spectrophotometric quantitation of malondialdehyde.

[2] = target: T2, COX-2 derived from sheep placenta (Ovis aries, UniProt P79208); test: Inhibition of COX-2 (arachidonic acid incubation, PGE2 formation); conditions: 300 μM; PGE2 formation by spectrophotometric quantitation of malondialdehyde
T2 sequence (P79208 17-603): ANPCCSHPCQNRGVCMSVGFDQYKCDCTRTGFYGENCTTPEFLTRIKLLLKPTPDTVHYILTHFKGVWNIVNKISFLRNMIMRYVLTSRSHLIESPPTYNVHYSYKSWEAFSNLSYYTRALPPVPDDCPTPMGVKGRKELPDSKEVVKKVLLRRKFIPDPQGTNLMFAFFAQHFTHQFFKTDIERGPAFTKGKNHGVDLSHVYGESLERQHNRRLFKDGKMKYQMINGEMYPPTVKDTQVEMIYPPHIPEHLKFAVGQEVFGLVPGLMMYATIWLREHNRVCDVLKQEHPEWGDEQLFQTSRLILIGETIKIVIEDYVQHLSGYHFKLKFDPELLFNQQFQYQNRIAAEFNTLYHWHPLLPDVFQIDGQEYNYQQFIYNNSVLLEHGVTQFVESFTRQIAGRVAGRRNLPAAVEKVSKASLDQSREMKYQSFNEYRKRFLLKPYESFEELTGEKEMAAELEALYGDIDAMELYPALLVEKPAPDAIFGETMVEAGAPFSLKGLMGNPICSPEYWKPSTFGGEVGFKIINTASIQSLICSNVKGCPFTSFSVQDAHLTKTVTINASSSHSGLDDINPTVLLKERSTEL
Description: as §1

[3] = tested on: adjuvant-induced footpad edema in rats; test: Adjuvant assay (adjuvant-induced footpad edema); format: in vivo, rat; conditions: Male Lewis rats, 3 mg/kg po, dosing day 14 to day 21 post-adjuvant
Description: See, for example, […], “Rat Adjuvant Arthritis A Model of Chronic Inflammation,” Pharmocoloigal Methods in the Control of Inflammation, 363-380 (1989) and references cited therein In this assay, Male Lewis rats weighing between 180-220 g were lightly anesthetized with an ip injection of 30 mg/kg of sodium pentobarbital (50 mg/mL). Desiccated Mycobacterium butyrium (Difco, 20 mg/mL) suspended in mineral oil was injected (50 μL) at both sides of the base of the tail under the skin A line was tattooed on both rear paws at 5 mm above the angle of the ankle The paw volumes, under the line, were measured by volume displacement using a plethysmometer (Ugo Basile) at the day of adjuvant injection (day 0) and on day 14 On day 14, animals with paw volumes equal to the mean of paw volumes ±SD were randomized into treatment groups. Rats which fell outside ±1 SD were not used in the experiment.

Row | SMILES | inhibition of COX-1 [1] | inhibition of COX-2 [2] | paw volume as compared to vehicle controls [3]
1 | CC(=O)Oc1c(C(C)(C)C)cc(/C=[N+](\[O-])C(C)(C)C)cc1C(C)(C)C [Example 1, α-(4-Acetoxy-3,5-di-tert-butylphenyl)-N-tert-butylnitrone] | did not significantly affect | did not significantly affect | 
2 | COc1ccc2c(c1)c(CC(=O)O)c(C)n2C(=O)c1ccc(Cl)cc1 [indomethacin] |  |  | significantly reduced

— patent publication US6730700B2, “3,4,5,-trisubstituted aryl nitrone compounds and pharmaceutical compositions containing the same” (Renovis, Inc., priority 1998, dated 2004)
